# Experimental data taken from paper PMC12344264, “Mechanistic, in-silico and in vitro studies with nitrofurans reveal potent leishmanicidal activity and inhibition of trypanothione reductase” (International Journal for Parasitology: Drugs and Drug …, 2025).
# Read-outs that look alike come from different tables or passages of the source.
# Assays:
# [1] = Cytotoxicity, alamarBlue, 72 h; format: cell-based; conditions: human
# Method: (§1) For cytotoxicity tests, several mammalian cell lines were used. […] Primary cell cultures were also used to evaluate cytotoxicity. […] BMDM cells were differentiated for one week with 30 % […] from L929 cell line.
# (§2) The in vitro cytotoxicity of the selected nitrofurans was evaluated in HepG2, RAW 264.7 cells, splenocytes and BMDM. In each well of a 96-well microtitre plate, 100 μL containing 10,000 HepG2 or RAW 264.7 cells were incubated for 24h at 37 °C and 5 % CO2 to allow the cells to settle. For primary cells, 100 μL containing 100,000 BMDM or 1,000,000 splenocytes were added to each well. Subsequently, […] of one-half serial dilutions of each compound diluted in DMEM (for HepG2 cells), RPMI medium (for RAW cells), splenocyte medium (for splenocytes) or BMDM medium supplemented with 10 % GM-CSF (for BMDM), were added to each well. The cytotoxic effect of the compounds was measured after 72 h of incubation at 37 °C and 5 % CO2. For this purpose, a 10 % (v/v) of the alamarBlue™ cell viability reagent (Invitrogen, Fisher Scientific International Inc., Pittsburgh, PA, USA) was added, and the reaction was incubated for 4 h at 37 °C and 5 % CO2. Fluorescence was measured using a Varioskan Lux spectrophotometer (ThermoFisher Scientific, Waltham, MA, USA). Positive controls consisting of 0.1 % (v/v) H2O2, and negative controls, consisting of 0.1 % (v/v) DMSO, were also included on each plate.
# (§3) All experiments were carried out in triplicate and included at least three technical replicates. […] The SI was calculated from the CC50/EC50 ratio.
# [2] = tested on: L. donovani-iRFP axenic amastigotes; test: ROS production by axenic amastigotes (DCFH-DA, flow cytometry); format: cell-based, Leishmania donovani
# Method: To assess ROS production in L. donovani-iRFP, axenic amastigotes were treated with nitrofurans at the concentration equivalent to their EC50 calculated in viability experiments. As positive control of oxidative stress induction, cultures were treated with 0.01 % H2O2 (v/v), whereas 0.03 % (v/v) DMSO was added as negative control. After an incubation period of 3 h at 37 °C, cells were harvested by centrifugation at 3500 rcf for 10 min, washed in phosphate-buffered saline (PBS), centrifuged again and resuspended in PBS. Cells were labeled with 5 μM 2′,7′-dichlorofluorescein diacetate (DCFH-DA, MedChemExpress) for 30 min at 37 °C. Then, cells were centrifuged at 3500 rcf for 5 min, washed, and resuspended in PBS. The cell suspension was stored at 4 °C until the analysis by flow cytometry, which was performed in a CytoFLEX SRT (Beckman Coulter). The experiment was carried out in triplicate and included three technical replicates.
# [3] = Cytotoxicity, alamarBlue, 72 h; format: cell-based, murine; conditions: mouse
# Method: as §1, §2, §3
# [4] = tested on: L. donovani-iRFP intramacrophage amastigotes; test: Ex vivo antileishmanial effect on intramacrophage amastigotes (infected murine splenocytes, iRFP fluorescence, 72 h); format: cell-based; conditions: Leishmania donovani, Splenocyte
# Method: (§4) For efficacy studies, L. donovani-iRFP, a genetically modified strain of L. donovani LV9 constitutively expressing the gene encoding the infrared fluorescent protein (iRFP) ([Melcón-Fernández et al., 2023]), was used. This strain was grown as promastigotes in Schneider's insect medium (Sigma-Aldrich, Merck, Darmstadt, Germany) supplemented with 20 % (v/v) foetal bovine serum (FBS) (Gibco, ThermoFisher Scientific, Waltham, MA, USA) and […] antibiotic cocktail (100 U/mL penicillin and 100 μg/mL streptomycin) (Hyclone, ThermoFisher Scientific, Waltham, MA, USA) at 26 °C until mice were infected ([Carballeira et al., 2016]). Axenic and intramacrophage amastigotes were isolated from six-to eight-week-old female Balb/c mice (see below) that had been infected intraperitoneally with 1.5 × 10^9 metacyclic L. donovani-iRFP promastigotes. To obtain axenic amastigotes, bone marrow was extracted from the femur and tibia of 8- to 10-week-old infected mice and passed through a 100 μm cell strainer. After centrifugation at 3500 rcf for 10 min at room temperature, cell suspensions were resuspended in medium containing 15 mM KCl; 136 mM KH2PO4; 10 mM K2HPO4.3H2O; 0.5 mM MgSO4.7H2O; 24 mM NaHCO3; 22 mM glucose; 1 mM glutamine, 1 × RPMI 1640 vitamin mix (Sigma-Aldrich, Merck, Darmstadt, Germany), 10 mM folic acid, 100 mM adenosine, 1 × RPMI amino acid mix (Sigma-Aldrich, Merck, Darmstadt, Germany), 5 mg/mL hemin, 25 mM 2-morpholinoethanesulfonic acid (MES) pH 5.6, supplemented with 10 % FBS (Gibco, ThermoFisher Scientific, Waltham, MA, USA) and antibiotic cocktail, and incubated at 37 °C and 5 % CO2. To obtain intramacrophage amastigotes, spleens from infected Balb/c mice were cut into pieces, ground with 2 mg/mL collagenase D (Merck, Darmstadt, Germany) and passed through a 100 μm cell strainer. The splenocyte-enriched cell suspension containing intramacrophage amastigotes was resuspended in RPMI medium (Gibco, Fisher Scientific International Inc., Pittsburgh, PA, USA) supplemented with 20 % FBS, 1 mM sodium pyruvate, 24 mM NaHCO3, 2 mM L-glutamine, 1 × RPMI vitamins, 25 mM HEPES pH 7.2 and antibiotic cocktail ([Ashok et al., 2016]).
# (§5) The antileishmanial effect of the nitrofurans selected in this study was tested both in vitro on axenic L. donovani-iRFP amastigotes and ex vivo on intramacrophage amastigotes according to previously published methods ([Melcón-Fernández et al., 2023], [2024]; [Andrés-Rodríguez et al., 2024]). Assays were performed in a final volume of […] containing 20,000 axenic amastigotes or a number of L. donovani-iRFP-infected murine splenocytes representing 150,000 relative fluorescence units (RFU), in each well of a black 384-well microtiter plate with optical bottom. In addition, 40 μL of one-half serial dilutions of each compound in amastigotes culture medium (for axenic amastigotes) or in supplemented RPMI medium (for intramacrophage amastigotes) were added to each well. Positive (amphotericin B at a final concentration of 18 μM) and negative (0.1 % v/v DMSO) controls were included on each plate. The plates were incubated at 37 °C and 5 % CO2 for a maximum of 72 h. Fluorescence emitted by viable L. donovani-iRFP was measured on an Odyssey infrared imaging system (Li-Cor, NE, USA).
# as §3
# L. donovani TryR = target: T1, L. donovani TryR (Leishmania donovani, UniProt P39050); test: biochemical; conditions: for Type of inhibition: Lineweaver-Burk double reciprocal plot, varying T[S]2
# T1 construct: endogenous in cells; host or cells: L. donovani-iRFP (LV9) axenic amastigotes, crude cell extract
# Method: The activity of L. donovani TryR was measured in the presence of different concentrations of nitrofurans according to the protocol previously described ([Melcón-Fernández et al., 2023]). Briefly, 1 × 10^10 L. donovani-iRFP axenic amastigotes were washed twice in PBS and lysed with a solution containing 1 mM EDTA, 40 mM HEPES, 50 mM Tris HCl pH 7.5, 2 % (v/v) Triton X-100 and Pierce™ Protease Inhibitors Mini Tablets (ThermoFisher Scientific, Waltham, MA, USA). Cell extracts were prepared by mechanical disruption of the cells with 0.5 mm diameter glass beads (Merck, Darmstadt, Germany) and the supernatant obtained by centrifugation at 10,000 rcf for 5 min at 4 °C was used to measure TryR activity in 96-well plates. […] Cell extracts diluted in Tris HCl pH 7.5 (0.43 μg of total protein in 50 μL) were added to launch the reaction. The negative control consisted of 2.5 % DMSO, whereas the blank reaction included the TryR assay solution without T [S]2. […] To determine steady-state conditions, enzymatic activity was measured at 412 nm (ε = 14,150 M^−1 cm^−1) for a period of up to 120 min (with 5 min intervals) at 26 °C in a Varioskan Lux spectrophotometer (ThermoFisher Scientific, Waltham, MA, USA). The experiment was carried out in triplicate and included three technical replicates.
# [5] = tested on: L. donovani-iRFP axenic amastigotes; test: Antileishmanial effect on axenic amastigotes (iRFP fluorescence viability, 72 h); format: cell-based; conditions: Leishmania donovani
# Method: as §4, §5, §3
# [6] = Cytotoxicity in bone marrow-differentiated macrophages, alamarBlue, 72 h; format: cell-based; conditions: mouse
# Method: as §1, §2, §3
# [7] = Cytotoxicity in primary splenocytes, alamarBlue, 72 h; format: cell-based; conditions: mouse
# Method: as §1, §2, §3
# [8] = compound at its axenic EC50, 3 h
# [9] = positive control 0.01 % (v/v), 3 h
# T1 sequence (P39050 whole entry): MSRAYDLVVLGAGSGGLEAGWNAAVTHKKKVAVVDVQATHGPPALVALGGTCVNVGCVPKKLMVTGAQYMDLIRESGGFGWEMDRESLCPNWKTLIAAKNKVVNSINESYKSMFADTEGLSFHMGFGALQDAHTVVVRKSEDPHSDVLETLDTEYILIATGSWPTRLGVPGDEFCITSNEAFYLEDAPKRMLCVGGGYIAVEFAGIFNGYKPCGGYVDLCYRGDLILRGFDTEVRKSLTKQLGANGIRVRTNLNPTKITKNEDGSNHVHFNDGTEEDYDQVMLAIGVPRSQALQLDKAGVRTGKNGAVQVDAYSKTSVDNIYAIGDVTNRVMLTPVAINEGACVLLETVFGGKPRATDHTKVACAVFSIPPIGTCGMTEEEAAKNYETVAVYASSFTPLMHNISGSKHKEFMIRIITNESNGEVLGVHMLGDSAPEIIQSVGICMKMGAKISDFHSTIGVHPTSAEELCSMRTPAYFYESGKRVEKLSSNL
SMILES,CC50 at 72 h [1],"Negative ROS (unstressed population) [2, 8]","Positive ROS (stressed population) [2, 8]",CC50 at 72 h [3],EC50 [4],Ki (L. donovani TryR),Type of inhibition (L. donovani TryR),EC50 [5],CC50 at 72 h [6],CC50 at 72 h [7],"CC50 at 72 h ([1]; HepG2 cells, 72 h, alamarBlue, read-out: HepG2 cells CC50)","CC50 at 72 h ([3]; RAW 264.7 cells, 72 h, alamarBlue, read-out: RAW 264.7 cells CC50)","Ki (L. donovani TryR; T[S]2 25-150 μM, inhibitor 6.25-100 μM, NADPH 0.20 mM, read-out: Ki)","CC50 at 72 h ([6]; bone marrow-differentiated macrophages (BMDM), 72 h, alamarBlue, uninfected mice, read-out: BMDM CC50)","CC50 at 72 h ([7]; primary splenocytes from healthy, non-infected mice, 72 h, alamarBlue, uninfected mice, read-out: Splenocytes CC50)","Positive ROS (stressed population) ([2]; compound at its axenic EC50, 3 h, listed as FURAZOLIDONE)","Negative ROS (unstressed population) [2, 9]","Positive ROS (stressed population) [2, 9]"
"CC(=O)OC(OC(C)=O)c1ccc([N+](=O)[O-])o1 [5-nitro-2-furaldehide diacetate, 5-Nitro-2-furaldehyde diacetate]",24.1 ± 0.59 µM,31.1%,68.9%,15.6 ± 1.27 µM,4.6 ± 0.26 µM,77.2 ± 21.9 µM,Uncompetitive,3.48 ± 0.09 µM,11.9 ± 0.46 µM,11 ± 0.28 µM,,,,,,,,
"N#Cc1ccc([N+](=O)[O-])o1 [5-nitro-2-furonitrile, 5-Nitro-2-furonitrile]",,38.2%,61.8%,,1.45 ± 0.11 µM,,Competitive,0.7 ± 0.05 µM,,,21.7 ± 0.39 µM,31.2 ± 5.04 µM,24.8 ± 1.43 µM,25.8 ± 0.6 µM,8.49 ± 0.52 µM,,,
O=C1OCCN1/N=C/c1ccc([N+](=O)[O-])o1 [Furazolidone],,45.9%,54.1 ± 5.8%,,0.09 ± 0.004 µM,13.7 ± 2.76 µM,Uncompetitive,0.17 ± 0.01 µM,,,,,,,,54.1%,,
OO [H2O2],,,,,,,,,,,,,,,,,28.5%,71.5%
